In US20250152557A1, “METHODS FOR TREATING SUBJECTS WITH ABDOMINAL OBESITY […] AND/OR IMPAIRED GLUCOSE” (NOVO NORDISK A/S, priority 2022, published 2025):

Experiments:
[1] = background statement, cited from earlier work
[2] = tested on: subjects with metabolic syndrome; experiment: Phase 1b study, liver safety (liver chemistry); format: in vivo, human
Text: (§1) The following will be assessed: sodium, potassium, chloride, glucose, blood urea nitrogen, creatinine, creatinine clearance, direct bilirubin, indirect bilirubin, bilirubin total, ALP, AST, ALT, albumin, lactate dehydrogenase, calcium, lipase, amylase, phosphorus, HbA1C, serum ferritin and total protein.
The hepatic safety of all randomized subjects will be assessed through the use of the following algorithm based on FDA DILI management guidelines (Center for Drug Evaluation and Research (CDER), FDA. Guidance for Industry: Drug-Induced Liver Injury: Premarketing Clinical Evaluation. July 2009).
An increase of serum ALT or AST>3×ULN should be followed by repeat testing within 48 to 72 hours of all four of the usual serum measures (ALT, AST, ALP, and TBL) to confirm the abnormalities and to determine if they are increasing or decreasing. There also should be inquiry made about symptoms.

DIO mouse model = experiment: Effect on body weight and metabolic parameters in DIO mouse model; format: in vivo
Text: The effect of INV-202 on body weight and food consumption was studied in a DIO mouse model.

[3] = tested on: subjects with metabolic syndrome; experiment: Phase 1b study, Columbia Suicidality Severity Rating Scale (C-SSRS); format: in vivo, human; settings: INV-202 group, EOT; 25 mg oral daily for 28 days
Text: A suicide risk assessment will be performed using the C-SSRS questionnaire at screening, Day −1 (if more than 21 days have passed since the screening C-SSRS), Day 29 (+2 days) and at the FU Visit/EOS/ET on Day 35 (+2 days).
This scale will be administered by a member of the medical team, completed on site, and will be on paper. The “Lifetime” C-SSRS questionnaire template will be used at the screening visit and on Day −1 (if applicable), and the “since last visit” C-SSRS questionnaire template will be used on Day 29 (+2 days) and at the FU Visit/EOS/ET. If the Investigator determines that a subject is at risk of suicide or self-harm, he/she must immediately be discontinued from the study and appropriate measures to ensure the subject's safety and obtain mental health evaluation must be implemented. The event should be recorded as either an AE or a SAE, as determined by the Investigator, and reported within 24 hours to the Sponsor.

[4] = tested on: subjects with metabolic syndrome; experiment: Phase 1b study, pharmacodynamic effects of INV-202 over 28 days (weight, waist, lipids, glucose, endocrine and renal markers); format: in vivo, human
Method: A phase 1b study to examine the pharmacokinetic and pharmacodynamic effects of INV-202 in subjects with metabolic syndrome as defined by hypertriglyceridemia, abdominal obesity, and impaired glucose tolerance over 28 days was performed.
This is single center, Phase 1B, randomized, double-blind, placebo-controlled, 28-day repeat dose study.
The study includes subjects with evidence of metabolic syndrome and glucose intolerance that are randomized 1:1 to receive either INV-202 or placebo. 20 subjects will receive 25 mg of INV-202 and 20 subjects will receive a matching placebo daily for 28 consecutive days, for a total of 40 subjects.
Subjects will receive a daily oral dose of INV-202 25 mg or a matching placebo for 28 consecutive days.
Body measurements performed at screening will include height and weight measurements, waist circumference, as well as BMI calculation. Height will only be measured at screening. Weight and waist circumference will also be measured pre-dose on Days 1, 8, 15, and 22, and on Day 29 (+2 days). BMI will be calculated as needed.
Weight and waist circumference will be measured in triplicate using a standard measuring method. The same scale should be used at all visits for a given subject. The scale should be calibrated according to the manufacturer's recommendation. A medical grade scale for weight should be used.
as §1
In addition, a lipid profile will also be assessed: total cholesterol, HDL, LDL, VLDL and triglycerides. […]
The following will be assessed only pre-dose on Days 1, 8, 15, and 22, on Day 29 (+2 days), and at the FU Visit/EOS/ET on Day 35 (+2 days): C-peptide, insulin, TSH, and T4.
The OGTT will be performed at screening, on Day −1, and on Day 29 (+2 days). The OGTT will not need to be performed at screening if there is evidence of HbA1C≥5.7% but ≤6.4% obtained within the last 3 months.
For the OGTT performed on Day 29 (+2 days), a 75 g glucose load will be administered with blood draws at 30 minutes, 1 hour, 2 hours and 3 hours post-intake.
The following PD parameters will be evaluated: • 1) 0-3 hour AUC blood glucose level during OGTT • 2) Plasma insulin level—change from baseline to EOS/ET • 3) C-peptide level—change from baseline to EOS/ET • 4) Plasma lipid profile (HDL, LDL, VLDL, triglycerides)—change from baseline to EOS/ET • 5) Adiponectin and leptin—change from baseline to EOS/ET • 6) hs-CRP—change from baseline to EOS/ET • 7) Weight—change from baseline to EOS/ET • 8) Waist circumference—change from baseline to EOT/ET • 9) Appetite and Food Intake questionnaire score—change from baseline to EOT/ET • 10) Urine albumin to creatinine ratio—change from baseline to EOS/ET
All PD analyses will be descriptive only and no formal statistical analysis is planned. Descriptive statistics will be used to describe change from baseline in values including glucose AUC during OGTT, fasting insulin level and C-peptide levels, lipids (e.g., triglycerides, HDL), adiponectin and other biomarkers. Exploratory analysis in PD versus AEs may be performed to evaluate the Exposure-Response.

[5] = tested on: subjects with metabolic syndrome; experiment: Phase 1b study, vital signs; format: in vivo, human; settings: 25 mg oral daily for 28 days
Text: BP, HR, RR and OT will be measured at screening and pre-dose on Days 1, 8, 15, and 22, on Day 29 (+2 days), and at the FU Visit/EOS/ET on Day 35 (+2 days). Vital signs will be measured in a sitting position (except for safety reasons and when ECG are planned around the same time). When vital signs measurements coincide with a blood draw, they should preferably be performed before the blood collection, whenever possible.

[6] = following 28-days of repeat dosing
[7] = 25 mg oral daily for 28 days, SD in next cell
[8] = 25 mg oral daily for 28 days, Table 3, SD in next cell
[9] = 25 mg oral daily for 28 days, endocrine lab data, Table 3

Cc1c(C(=O)NN2CCCCC2)nn(-c2ccc(Cl)cc2Cl)c1-c1ccc(Cl)cc1 [Rimonabant]
efficacy in metabolic syndrome [1]: effective in treating metabolic syndrome | side effects ([1]; resulted in withdrawal from the market): caused neuropsychiatric (i.e. CNS-related) side effects

CC(=O)N/C(N)=N/C(=N\S(=O)(=O)c1ccc(C(F)(F)F)cc1)N1C[C@H](c2ccccc2)C(c2ccc(Cl)cc2)=N1 [INV-202, N-{[(S)-{[3-(4-chlorophenyl)-4-phenyl-4,5-dihydro-1H-pyrazol-1-yl][4-(trifluoromethyl)benzenesulfonamido]methylidene}amino]methanimidoyl}acetamide]
liver chemistry ([2]; all patients throughout the study): within normal limits | changes for bilirubin (total, direct, indirect) or transaminases (AST and ALT) ([2]; throughout the study): no significant changes | C-peptide levels (DIO mouse model): significant effects in reducing C-peptide levels | glucose AUC in an OGTT test (DIO mouse model): decreased glucose AUC | insulin levels (DIO mouse model): significant effects in reducing | ALT (DIO mouse model; [6]): significantly decreased ALT | liver triglyceride (DIO mouse model; [6]): significantly decreased | body weight (DIO mouse model; following 10 days of dosing): dose dependently reduce body weight | C-SSRS: Non-specific active suicidal thoughts [3]: 0 | C-SSRS: Suicidal behaviour [3]: 0 | C-SSRS: Wished to be dead [3]: 0 | BMI, change from baseline ([4]; 25 mg oral daily for 28 days): −1.20 kg/m^2 | HDL (%), change from baseline ([4]; 25 mg oral daily for 28 days): 0.13% | Triglycerides (%), change from baseline ([4]; 25 mg oral daily for 28 days): −7.9% | OGTT (0-3 hour AUC blood glucose), change from baseline ([4]; 25 mg oral daily for 28 days, 75 g glucose load, SD in next cell): 2.24 mmol·h/L | C-peptide, change from baseline [4, 7]: 0.036 nmol/L | HDL, change from baseline [4, 7]: 0.0015 mmol/L | HgbA1C, change from baseline [4, 7]: −0.005% | Insulin, change from baseline [4, 7]: -5.0 pmol/L | LDL, change from baseline [4, 7]: -0.50 mmol/L | Total Chol., change from baseline [4, 7]: -0.56 mmol/L | Triglycerides, change from baseline [4, 7]: -0.179 mmol/L | VLDL, change from baseline [4, 7]: -0.08 mmol/L | Waist, change from baseline [4, 7]: −1.91 cm | Weight (%), change from baseline [4, 7]: −3.33% | Weight, change from baseline [4, 7]: -3.50 kg | hs-CRP, change from baseline [4, 7]: -1.6 mg/L | Leptin (%) ([4]; 25 mg oral daily for 28 days, Table 3): −18% | Adiponectin [4, 8]: 0.15 mg/L | Leptin [4, 8]: -2.64 µg/L | T4 [4, 9]: 0.516 pmol/L | TSH [4, 9]: −0.014 mIU/L | eGFR (CKD-EPI 2021) ([4]; 25 mg oral daily for 28 days, renal lab data, Table 3): 3.23 mL/min/1.73 m2 | maximum weight loss by percentage ([4]; after 28 days of treatment, individual patient maximum): 6% | lowest weight loss by percentage ([4]; after 28 days of treatment, individual patient minimum): 0.1% | average weight loss at first clinic visit ([4]; day 8, statistically significant): 1.4% | weight change of individual patients ([4]; every single patient on INV-202): lost weight | Diastolic Blood Pressure (DBP), change from baseline [5]: −0.25 mmHg | Heart Rate, change from baseline [5]: 2.3 bpm | Systolic Blood Pressure (SBP), change from baseline [5]: −4.65 mmHg | Temp, change from baseline [5]: −0.045 °C
